Data taken from patent US9144239B2, “Macrocyclic picolinamides as fungicides” (DOW AGROSCIENCES LLC, priority 2012, dated 2015).
Where two headings read alike, the source gives them in different places.

What was measured:
[1] = tested on: Puccinia triticina; synonym: Puccinia recondita f. sp. tritici; assay: Fungicidal activity: wheat brown rust (PUCCRT), wheat seedlings; assay type: in vivo
Protocol: Technical grades of materials were dissolved in acetone, which were then mixed with nine volumes of water containing 110 ppm Triton X-100. The fungicide solutions were applied onto wheat seedlings using an automated booth sprayer to run-off. All sprayed plants were allowed to air dry prior to further handling. Wheat plants (variety Yuma) were grown from seed in a greenhouse in 50% mineral soil/50% soil-less Metro mix until the first leaf was fully emerged, with 7-10 seedlings per pot. These plants were inoculated with an aqueous spore suspension of Septoria tritici either prior to or after fungicide treatments. After inoculation the plants were kept in 100% relative humidity (one day in a dark dew chamber followed by two to three days in a lighted dew chamber at 20° C.) to permit spores to germinate and infect the leaf. The plants were then transferred to a greenhouse set at 20° C. for disease to develop. When disease symptoms were fully expressed on the 1st leaves of untreated plants, infection levels were assessed on a scale of 0 to 100 percent disease severity. Percent disease control was calculated using the ratio of disease severity on treated plants relative to untreated plants. Evaluation of Fungicidal Activity: Wheat Brown Rust (Puccinia […]; Synonym: Puccinia recondita f. Sp. Tritici; Bayer Code PUCCRT) Wheat plants (variety Yuma) were grown from seed in a greenhouse in 50% mineral soil/50% soil-less Metro mix until the first leaf was fully emerged, with 7-10 seedlings per pot. These plants were inoculated with an aqueous spore suspension of Puccinia triticina either prior to or after fungicide treatments. After inoculation the plants were kept in a dark dew room at 22° C. with 100% relative humidity overnight to permit spores to germinate and infect the leaf. The plants were then transferred to a greenhouse set at 24° C. for disease to develop. Fungicide formulation, application and disease assessment followed the procedures as described in the Example A.

[2] = tested on: Mycosphaerella graminicola; anamorph: Septoria tritici; assay: Fungicidal activity: leaf blotch of wheat (SEPTTR), wheat seedlings; assay type: in vivo; conditions: Zymoseptoria tritici
Protocol: Evaluation of Fungicidal Activity: Leaf Blotch of Wheat (Mycosphaerella Graminicola; Anamorph: Septoria tritici; Bayer Code […]) Technical grades of materials were dissolved in acetone, which were then mixed with nine volumes of water containing 110 ppm Triton X-100. The fungicide solutions were applied onto wheat seedlings using an automated booth sprayer to run-off. All sprayed plants were allowed to air dry prior to further handling. Wheat plants (variety Yuma) were grown from seed in a greenhouse in 50% mineral soil/50% soil-less Metro mix until the first leaf was fully emerged, with 7-10 seedlings per pot. These plants were inoculated with an aqueous spore suspension of Septoria tritici either prior to or after fungicide treatments. After inoculation the plants were kept in 100% relative humidity (one day in a dark dew chamber followed by two to three days in a lighted dew chamber at 20° C.) to permit spores to germinate and infect the leaf. The plants were then transferred to a greenhouse set at 20° C. for disease to develop. When disease symptoms were fully expressed on the 1st leaves of untreated plants, infection levels were assessed on a scale of 0 to 100 percent disease severity. Percent disease control was calculated using the ratio of disease severity on treated plants relative to untreated plants.

[3] = 24 h, 100 ppm, 1 Day Protectant, wheat, read-out: Disease Control PUCCRT 1DP
[4] = 72 h, 100 ppm, 3 Day Curative, wheat, read-out: Disease Control PUCCRT 3DC
[5] = 24 h, 100 ppm, 1 Day Protectant, wheat, read-out: Disease Control SEPTTR 1DP
[6] = 72 h, 100 ppm, 3 Day Curative, wheat, read-out: Disease Control SEPTTR 3DC
[7] = 24 h, read-out: Disease Control PUCCRT 1DP
[8] = 72 h, read-out: Disease Control PUCCRT 3DC
[9] = 24 h, read-out: Disease Control SEPTTR 1DP
[10] = 72 h, read-out: Disease Control SEPTTR 3DC

SMILES	pest or weed control at 100 ppm [1, 3]	pest or weed control at 100 ppm [1, 4]	pest or weed control at 100 ppm [2, 5]	pest or weed control at 100 ppm [2, 6]	pest or weed control at 100 ppm [1, 7]	pest or weed control at 100 ppm [1, 8]	pest or weed control at 100 ppm [2, 9]	pest or weed control at 100 ppm [2, 10]
COc1ccnc(C(=O)N[C@H]2COC[C@H](Oc3ccccc3)[C@@H](OCC=C3CCCCC3)[C@H](C)OC2=O)c1O [Compound 212]	80 to 100%	0 to 80%	80 to 100%	0 to 80%				
CCOCC(=O)OCOc1c(OC)ccnc1C(=O)N[C@H]1COC[C@H](Oc2ccc(F)cc2)[C@@H](Oc2ccc(F)cc2)[C@H](C)OC1=O [Compound 230]	80 to 100%	80 to 100%	80 to 100%	80 to 100%				
COc1ccnc(C(=O)N[C@H]2COC[C@H](OCC(C)C)[C@@H](OCC(C)C)[C@@H](COCC(C)C)OC2=O)c1OCOC(C)=O [Compound 17]	0 to 80%	0 to 80%	0 to 80%					
COc1ccnc(C(=O)N[C@H]2COC[C@H](Oc3ccc(F)cc3)[C@@H](Oc3ccc(F)cc3)[C@H](C)OC2=O)c1O [Compound 208]	80 to 100%		80 to 100%	0 to 80%				
CCCCO[C@H]1COC[C@H](NC(=O)c2nccc(OC)c2O)C(=O)O[C@@H](C)[C@@H]1O [Compound 42, N-((3S,7S,8S,9S)-7-butoxy-8-hydroxy-9-methyl-2-oxo-1,5-dioxonan-3-yl)-3-hydroxy-4-methoxypicolinamide]	80 to 100%	80 to 100%	0 to 80%	0 to 80%				
COc1ccnc(C(=O)N[C@@H]2COC[C@H](OCc3ccccc3)[C@@H](OCc3ccccc3)[C@@H](C)OC2=O)c1OCOC(C)=O [Compound 31]	0 to 80%	0 to 80%	0 to 80%	0 to 80%				
COc1ccnc(C(=O)N[C@H]2COC[C@H](Oc3ccccc3)[C@@H](OC3CCCC3)[C@H](C)OC2=O)c1O [Compound 205]	80 to 100%	80 to 100%	80 to 100%	80 to 100%				
COc1ccnc(C(=O)N[C@H]2CO[C@@H](C)C(OCc3ccccc3)C(OCc3ccccc3)[C@H](C)OC2=O)c1OCOC(C)=O (stereo partly drawn) [Compound 28]	80 to 100%	80 to 100%	80 to 100%	80 to 100%				
COc1ccnc(C(=O)N[C@@H]2COC[C@H](OCc3ccccc3)[C@@H](OCc3ccccc3)[C@@H](C)OC2=O)c1O [Compound 30, N-((3R,7S,8S,9R)-7,8-bis(benzyloxy)-9-methyl-2-oxo-1,5-dioxonan-3-yl)-3-hydroxy-4-methoxypicolinamide]					0 to 80%	0 to 80%	0 to 80%	0 to 80%
COc1ccnc(C(=O)N[C@H]2COC[C@H](Oc3ccc(C)cc3)[C@@H](Oc3ccc(C)cc3)[C@H](C)OC2=O)c1O [Compound 206]	80 to 100%	80 to 100%	80 to 100%	80 to 100%				
COc1ccnc(C(=O)N[C@H]2COC[C@H](OC3CCCC3)[C@@H](Oc3ccccc3)[C@H](C)OC2=O)c1OCOC(C)=O [Compound 223]	80 to 100%	80 to 100%	80 to 100%	80 to 100%				
COc1ccnc(C(=O)N[C@H]2CO[C@@H](C)[C@H](OCc3ccccc3)[C@@H](OCc3ccccc3)[C@H](C)OC2=O)c1O [Compound 25]	80 to 100%	0 to 80%	80 to 100%	0 to 80%				
CCCCO[C@H]1COC[C@H](NC(=O)c2nccc(OC)c2O)C(=O)O[C@@H](C)[C@@H]1OC(=O)C(C)C [Compound 46, (3S,6S,7S,8S)-8-butoxy-3-(3-hydroxy-4-methoxypicolinamido)-6-methyl-4-oxo-1,5-dioxonan-7-yl isobutyrate]					80 to 100%	80 to 100%	80 to 100%	80 to 100%
COc1ccnc(C(=O)N[C@H]2COC[C@H](OCCCc3ccccc3)[C@@H](OCCCc3ccccc3)[C@H](C)OC2=O)c1O [Compound 59]	80 to 100%	80 to 100%	80 to 100%	0 to 80%				
COc1ccnc(C(=O)N[C@H]2COC[C@H](Oc3ccccc3)[C@@H](O)[C@H](C)OC2=O)c1O [Compound 211]	0 to 80%			0 to 80%				
COc1ccc(O[C@H]2[C@H](C)OC(=O)[C@@H](NC(=O)c3nccc(OC)c3O)COC[C@@H]2OC(=O)C(C)C)cc1 [Compound 199]	80 to 100%		0 to 80%					
CCCCO[C@H]1COC[C@H](NC(=O)c2nccc(OC)c2OCOC(C)=O)C(=O)O[C@@H](C)[C@@H]1OCC(C)C [Compound 50]	80 to 100%	80 to 100%	80 to 100%	80 to 100%				
COc1ccnc(C(=O)N[C@H]2COC[C@@H](OCc3ccccc3)[C@H](OCc3ccccc3)[C@H](C)OC2=O)c1OCOC(C)=O [Compound 40]	80 to 100%	0 to 80%	0 to 80%	0 to 80%				
CCOCC(=O)OCOc1c(OC)ccnc1C(=O)N[C@H]1COC[C@H](Oc2ccc(OC)cc2)[C@@H](Oc2ccc(OC)cc2)[C@H](C)OC1=O [Compound 219]	80 to 100%	80 to 100%	80 to 100%	0 to 80%				
COc1ccnc(C(=O)N[C@@H]2COC[C@H](OCC(C)C)[C@@H](OCC(C)C)COC2=O)c1OCOC(C)=O [Compound 14]	80 to 100%	0 to 80%	0 to 80%					
CCOCC(=O)OCOc1c(OC)ccnc1C(=O)N[C@H]1COC[C@H](Oc2ccc(C)cc2)[C@@H](Oc2ccc(C)cc2)[C@H](C)OC1=O [Compound 225]	80 to 100%	80 to 100%	80 to 100%	80 to 100%				
COc1ccnc(C(=O)N[C@H]2COC[C@H](Oc3ccccc3)[C@@H](OC3CCCC3)[C@H](C)OC2=O)c1OCOC(C)=O [Compound 224]	80 to 100%	80 to 100%	80 to 100%	80 to 100%				
COc1ccnc(C(=O)N[C@H]2CO[C@H](C)[C@H]3OC(C)(C)O[C@@H]3[C@@H](C)OC2=O)c1OCOC(C)=O [Compound 29]	0 to 80%	0 to 80%	0 to 80%	0 to 80%				
CC[C@H]1OC(=O)[C@H](NC(=O)c2nccc(OC)c2OCOC(C)=O)COC[C@H](OCC(C)C)[C@H]1OCC(C)C [Compound 24]	0 to 80%	0 to 80%	0 to 80%	0 to 80%				
COc1ccnc(C(=O)N[C@H]2COC[C@H](OCc3ccccc3)[C@@H](OCc3ccccc3)COC2=O)c1O [Compound 5, N-((3S,7S,8S)-7,8-bis(benzyloxy)-2-oxo-1,5-dioxonan-3-yl)-3-hydroxy-4-methoxypicolinamide]	0 to 80%	0 to 80%	0 to 80%	0 to 80%				
COc1ccnc(C(=O)N[C@H]2CO[C@@H](C)[C@H](OCC(C)C)[C@@H](OCC(C)C)COC2=O)c1O [Compound 4]	80 to 100%		80 to 100%	80 to 100%				
